The text below walks through data of patent US12208159B2, “Compositions, methods and kits for treating a contact lens” (University of Houston System, priority 2016, dated 2025).

Data set [1] can be described thus: Time course release of individual compounds from contact lenses. The format is physicochemical. The conditions noted are these: Comfilcon A. The procedure: The modified Comfilcon A lenses are placed into individual wells of a 24 well plate with 1 mL PBS in each well at room temperature. The PBS solution is replaced with fresh PBS every hour for up to 8 h or 15 h, or every 10 min for 2 h or 6 h. The amount of fluorescent compound released into the collected PBS aliquots is quantified spectrophotometrically based on the above standard curve. The amount of F-Cip released into the collected PBS aliquots is quantified using LC-MS (LCQ Deca XP plus with Surveyor LC, Thermo Fisher, Waltham, MA) with electrospray ionization in positive ion mode. Samples ([…] each) are loaded onto the analytical column at […] (Kinetex XB-C18, 2.×50 mm, […], Phenomenex) with the following gradient: 0-3 min, 10-75% (B); 3-7.5 min, 75-91% (B). The mobile phase consists of (A) water containing 0.1% formic acid and (B) acetonitrile containing 0.1% formic acid. Mass spectrometric parameters are as follows: 250° C. capillary temperature, 45 units sheath gas, 10 units aux gas and 4.5 kV spray voltage. […]

The test system of data set [2] is human telomerase corneal epithelial cells (hTCEpi). The format is cell-based. The procedure:
Telomerase modified human corneal epithelial cells were seeded into wells of a 96 well plate with […] KGM-2 medium (Lonza Ltd, Switzerland) and incubated at 37° C. until ˜80% confluence. […] Cells treated with 0.05% benzalkonium chloride (BAC) and without any treatment served as controls. The plate was incubated at 37° C. for 18 h, and cell viability was determined using a cell counting kit-8 assay. […] All lenses are taken out, and cell viability was determined using a cell counting kit-8 assay (Dojindo Molecular Technologies, Inc. Japan).

Data set [3] in a line: Loading of molecules into commercial contact lenses (Comfilcon A). The class given is physicochemical. The procedure:
(§1) Briefly, commercial lenses are individually immersed in wells of a 24 well plate, each containing 1 mL PBS solution of FITC-F ([…]), FITC ([…]), Cip (100 mM) or F-Cip (100 mM), and incubated for 18 h. Then the lenses are washed with PBS three times for 5 min each. All incubation and wash solutions are collected and the amount of each compound is quantified by spectrophotometry. Standard curves are generated with seven standard samples with known concentrations for each individual compound of interest. Specifically, fluorescent compounds FITC and FITC-F are quantified by fluorescence emission at 520 nm (lex. 485 nm), and Cip and F-Cip are quantified by absorbance at 275 nm. The amount of each compound in the above collected solutions is then measured with the standard curve. The amount of the compound incorporated into lenses was determined by subtracting the amount in solution from the total amount added initially.
(§2) Commercial lenses of the above 4 types were removed from blister packs, and blotted gently to remove excess solution. Contact lenses were placed individually into glass vials and immersed in 1 mL of FITC-C8F15 or FITC solution (15.6 μM in phosphate buffered saline) for 24 hours at room temperature. At the end of incubation, lenses were washed three times using phosphate buffered saline. […]

Data set [4] in a line: Loading of molecules into commercial contact lenses (Lotrafilcon B). The format is physicochemical. Conditions: 24 hours at room temperature, listed as FITC-C8F15. The procedure:
as §1, §2

The subject of data set [5] is Pseudomonas aeruginosa (PA) ATCC 19660. Description: Antibacterial activity of F-Cip (growth inhibition, absorbance at 620 nm). The format is cell-based. The conditions noted are these: ATCC19660, P. aeruginosa ATCC 19660, 18 h at 37° C., n > 3. The procedure:
The strain is inoculated and grown at 37° C. for 18 h. The bacterial suspension ([…]) is added into 100 mL of nutrient broth and incubated for 2 h to reach a log growth phase. The resulting bacterial suspension is adjusted to a concentration of ˜10^7 cfu/mL and […] are placed into each well of a 96 well plate. Fifty microliters of F-Cip solution are added into the 96 well plate and incubated at 37° C. for 18 h. The inhibition of microbial growth is determined by measuring the absorbance at 620 nm.

The test system of data set [6] is P. aeruginosa 19660. Description: In vitro antimicrobial activity of F-Cip-loaded Comfilcon A contact lenses. The format is cell-based, Pseudomonas aeruginosa. The conditions noted are these: Comfilcon A lenses loaded with the compound.
Data set [7] is described as follows: Lens transparency after modification (light transmission). Conditions: Comfilcon A lenses embedded with the compound.
Data set [8] relates to P. aeruginosa 19660. Briefly: Ex vivo porcine eye infection model, antimicrobial activity of loaded contact lenses. Set-up: species or system Pseudomonas aeruginosa (porcine eyes). The conditions noted are these: Comfilcon A lenses modified with the compound, on infected scratched porcine eyes, 12 h.
Method: Upon arrival, eyelids and connective tissues are removed and the porcine eyes are sanitized using 5% penicillin/streptomycin (Sigma-Aldrich, St. Louis, MO) for 1 h followed by washing thrice with PBS. Six scratch wounds with a 3×3 crosshatch pattern of length about 1 cm are created on each cornea using a 27G needle. The eyes are placed into holders and 100 ml of bacterial solution containing 10^6 CFU (see “Antibacterial activity of F-Cip” section discussed above) applied to each cornea. The eyes are left at room temperature in a biosafety cabinet for 5 h. After rinsing with 10 mL of PBS, control and modified Comfilcon A contact lenses are placed individually onto the eyes. […] One eye without scratches but incubated with bacteria served as an additional control. A custom-made apparatus is used to flow culture medium over the surface of the porcine eyes. […] Then 100 ml of the bacterial suspension from each sample was taken out and added into a 96-well plate in triplicate, and absorbance at 620 nm was measured and plotted as percentage of bacterial growth inhibition compared to the corneas infected with bacteria but without any treatments. […]

Several values for one entry are separate records, joined by “and”; a condition that tells them apart may be missing. Equal entries are not always repeated.

Turning to fluorescein isothiocyanate [Compound 7], in data set [1] (solution exchange rate 1 mL/h), the release at plateau was about 60%, the release profile result was “typical burst release profile” and the “time to reach release plateau (no more release)” value is given as at most 2 h. Besides, the “time to reach release plateau” value in data set [1] (solution exchange rate 6 mL/h) was at most 50 min.
Consider “Benzalkonium chloride [Benzalkonium chloride (BAC)]”, for which the cells killed result in data set [2] was “about 100%”.
As to `O=C(O)c1cc(NC(=S)NCC(F)(F)C(F)(F)C(F)(F)C(F)(F)C(F)(F)C(F)(F)C(F)(F)F)ccc1-c1c2ccc(=O)cc-2oc2cc(O)ccc12` [Compound 6], the “amount attached relative to the amount of FITC attached” value in data set [3] (Comfilcon A, 24 hours at room temperature, listed as FITC-C8F15) was 11 times and 9 times. The “amount attached relative to the amount of FITC attached” value in data set [4] is 6.5 times and 5 times. For the same compound, in data set [1] (solution exchange rate 1 mL/h), the “duration of nearly linear release” value came out at 6 h, the release profile entry is given as “sustained profile” and the release rate turned out to be 10.5 % per hour. Also, the “release reached at 15 h” value in data set [1] (solution exchange rate 1 mL/h, 15 h) is given as about 90%. In data set [1] (solution exchange rate 6 mL/h), the “duration of sustained linear release” value was 120 min, the release rate is 26.5 % per hour and the “time to reach release plateau” value is recorded as 270 min.
The IC50 is the concentration at which inhibition is half-maximal. A high value points to weaker potency in that assay. For `O=C(O)c1cn(C2CC2)c2cc(N3CCNCC3)c(F)cc2c1=O` [Compound 12, Ciprofloxacin], the “amount loaded onto lens” value in data set [3] (Comfilcon A lenses, incubated 18 h in PBS solution) was determined as 3.56±4.51 nmol/lens. Also, the IC50 in data set [5] was determined as 0.13 ± 0.035 µM. The growth inhibition in data set [6] is recorded as 35.2%. For the same compound, the “transmission profile compared with fresh unmodified lens” value in data set [7] (between 200 nm and 800 nm) is reported as “significantly overlap”. For the same compound, the “Transmission of modified lenses” value in data set [7] (between 400 nm and 750 nm) is recorded as “about 100%”. Also, the bacterial growth inhibition in data set [8] came to 37.5±8.2%. In data set [1] (solution exchange rate 1 mL/h), the release at plateau is about 60%, the release profile entry is “typical burst release profile” and the “time to reach release plateau (no more release)” value was 3 h.
